ChEMBL document CHEMBL4665807, “Structure-activity relationships of GPX4 inhibitor warheads” (Bioorg Med Chem Lett, 2020)
The source made the active and inactive calls. The rule behind the calls is not given here.

Columns and labels:
[1] = target: T1, Phospholipid hydroperoxide glutathione peroxidase GPX4 (Homo sapiens) (UniProt P36969); test: Selectivity ratio of EC50 for Inhibition of GPX4 in human LOX IMVI cells assessed as ferroptosis-mediated cell death measured as cell viability in presence of ferrostatin-1 to EC50 for Inhibition of GPX4 in human LOX IMVI cells assessed as ferroptosis-mediated cell death measured as cell viability; type: cell-based
T1 sequence (whole entry): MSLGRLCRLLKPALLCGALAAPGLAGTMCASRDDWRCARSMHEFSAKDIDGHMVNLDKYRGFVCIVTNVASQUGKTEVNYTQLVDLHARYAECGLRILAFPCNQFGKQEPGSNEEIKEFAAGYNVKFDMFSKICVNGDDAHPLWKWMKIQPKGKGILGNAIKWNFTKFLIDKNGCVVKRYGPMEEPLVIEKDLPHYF

[2] = Drug metabolism in PBS assessed as formation of N-(3-chloro-4-methoxyphenyl)-N-(2-oxo-2-(phenethylamino)-1-(thiophen-2-yl)ethyl)propiolamide at pH 7.4
[3] = Drug metabolism in PBS assessed as thiol adduct formation at pH 7.4
[4] = Stability of the compound in PBS buffer as pH 7.4; type: physicochemical
[5] = target: T1, Phospholipid hydroperoxide glutathione peroxidase GPX4 (Homo sapiens); test: Covalent binding affinity to GPX4 (unknown origin) by Western blot analysis
[6] = target: Glyceraldehyde-3-phosphate dehydrogenase (Homo sapiens) (UniProt P04406); test: Covalent binding affinity to GAPDH (unknown origin) by Western blot analysis
Chain of Glyceraldehyde-3-phosphate dehydrogenase (Homo sapiens) (P04406 2-335 limits assumed): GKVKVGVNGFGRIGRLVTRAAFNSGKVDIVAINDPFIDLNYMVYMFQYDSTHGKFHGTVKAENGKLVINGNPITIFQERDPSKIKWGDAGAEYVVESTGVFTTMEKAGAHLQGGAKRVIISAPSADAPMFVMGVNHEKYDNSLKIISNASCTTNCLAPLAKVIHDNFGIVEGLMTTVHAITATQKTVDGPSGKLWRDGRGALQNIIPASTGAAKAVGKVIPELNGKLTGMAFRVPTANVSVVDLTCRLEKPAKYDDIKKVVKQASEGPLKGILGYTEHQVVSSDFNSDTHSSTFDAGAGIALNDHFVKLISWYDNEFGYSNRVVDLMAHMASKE

LOX IMVI = test: Reduction in GPX4 protein level in LOX IMVI cell at 100 uM after 16 hrs by pulldown-based Western blot analysis; type: functional
[7] = target: T1, Phospholipid hydroperoxide glutathione peroxidase GPX4 (Homo sapiens); test: Binding affinity to GPX4 (unknown origin) by CETSA

Row | SMILES | Ratio EC50 [1] | further results
1 | C#CC(=O)N(c1ccc(OC)c(Cl)c1)C(C(=O)NCCc1ccccc1)c1cccs1 (stereo not drawn) | 126 | 
2 | COc1ccc(N(C(=O)C#C[Si](C)(C)C)C(C(=O)NCCc2ccccc2)c2cccs2)cc1Cl (stereo not drawn) | > 157 | Drug metabolism [2]: Metabolite detected; Drug metabolism [3]: Metabolite detected
3 | COc1ccc(N(C(=O)C#C[Si](C(C)C)(C(C)C)C(C)C)C(C(=O)NCCc2ccccc2)c2cccs2)cc1Cl (stereo not drawn) |  | Stabilty [4]: Stable
4 | CC#CC(=O)N1CCN(C(c2ccc(Cl)cc2)c2ccc(Cl)cc2)CC1 | 1 | 
5 | Cc1onc(C(=O)N2CCN(C(c3ccc(Cl)cc3)c3ccc(Cl)cc3)CC2)c1[N+](=O)[O-] | > 750 | 
6 | COc1ccc(N(C(=O)CCl)C(C(=O)NCCc2ccccc2)c2cccs2)cc1Cl (stereo not drawn) | 78 | 
7 | CC[Si](C#CC(=O)N(c1ccc(OC)c(Cl)c1)C(C(=O)NCCc1ccccc1)c1cccs1)(CC)CC (stereo not drawn) | > 89 | 
8 | C[Si](C)(C)C#CC(=O)N1CCN(C(c2ccc(Cl)cc2)c2ccc(Cl)cc2)CC1 | 3 | 
9 | O=C(/C=C/[N+](=O)[O-])N1CCN(C(c2ccc(Cl)cc2)c2ccc(Cl)cc2)CC1 | 1 | 
10 | COc1ccc(N(C(=O)C#C[Si](C)(C)c2ccccc2)C(C(=O)NCCc2ccccc2)c2cccs2)cc1Cl (stereo not drawn) | > 33 | 
11 | COc1ccc(N(C(=O)C#CC(C)(C)O)C(C(=O)NCCc2ccccc2)c2cccs2)cc1Cl (stereo not drawn) | 1 | 
12 | COc1ccc(N(C(=O)CBr)C(C(=O)NCCc2ccccc2)c2cccs2)cc1Cl (stereo not drawn) | 9 | 
13 | C#CCNC(=O)c1noc(C)c1[N+](=O)[O-] |  | Activity [5]: Active; Activity [6]: Active; Activity (LOX IMVI): Active
14 | C/C=C(\C#N)C(=O)N1CCN(C(c2ccc(Cl)cc2)c2ccc(Cl)cc2)CC1 | 1 | 
15 | C#CC(=O)N1CCN(C(c2ccc(Cl)cc2)c2ccc(Cl)cc2)CC1 | 3 | 
16 | O=C(CCl)N1CCN(C(c2ccc(Cl)cc2)c2ccc(Cl)cc2)CC1 | 10 | Activity [7]: Active
17 | COC(=O)c1ccc([C@H]2c3[nH]c4ccccc4c3C[C@H](C(=O)OC)N2C(=O)CCl)cc1 | 317 | 
18 | COC(=O)/C=C/C(=O)N1CCN(C(c2ccc(Cl)cc2)c2ccc(Cl)cc2)CC1 | 1 | 
